Reference: ChEMBL document CHEMBL1123961 (J Med Chem, 1988)

Tests used:
[1] = biological target: Serotonin receptor 2a and 2c (5HT2A and 5HT2C) (Rattus norvegicus) (UniProt P08909+P14842)
Description: Hill coefficient of compound was determined

[2] = biological target: T1, Serotonin receptor 2a and 2c (5HT2A and 5HT2C) (Rattus norvegicus, UniProt P08909+P14842); assay: Binding affinity at 5-hydroxytryptamine 2 receptor determined using [125I]- DOI as radioligand in rat frontal cortex; assay type: tissue-based
[3] = biological target: T1, Serotonin receptor 2a and 2c (5HT2A and 5HT2C); assay: Binding affinity at [3H]DOB labeled sites of 5-hydroxytryptamine 2 receptor determined using [125I]- DOI as radioligand in rat frontal cortex; assay type: tissue-based
[4] = biological target: T1, Serotonin receptor 2a and 2c (5HT2A and 5HT2C); assay: Binding affinity at [3H]KET labeled sites of 5-hydroxytryptamine 2 receptor determined using [125I]- DOI as radioligand in rat frontal cortex; assay type: tissue-based
[5] = biological target: T1, Serotonin receptor 2a and 2c (5HT2A and 5HT2C); assay: Binding affinity at [3H]DOB labeled sites of 5-hydroxytryptamine 2 receptor was determined using [125I]- DOI as radioligand in rat frontal cortex; assay type: tissue-based
[6] = biological target: T1, Serotonin receptor 2a and 2c (5HT2A and 5HT2C); assay: Binding affinity at [3H]KET labeled sites of 5-hydroxytryptamine 2 receptor was determined using [125I]- DOI as radioligand in rat frontal cortex; assay type: tissue-based

Chain of Serotonin receptor 2a and 2c (5HT2A and 5HT2C) (Rattus norvegicus) (P08909 whole entry, looked up): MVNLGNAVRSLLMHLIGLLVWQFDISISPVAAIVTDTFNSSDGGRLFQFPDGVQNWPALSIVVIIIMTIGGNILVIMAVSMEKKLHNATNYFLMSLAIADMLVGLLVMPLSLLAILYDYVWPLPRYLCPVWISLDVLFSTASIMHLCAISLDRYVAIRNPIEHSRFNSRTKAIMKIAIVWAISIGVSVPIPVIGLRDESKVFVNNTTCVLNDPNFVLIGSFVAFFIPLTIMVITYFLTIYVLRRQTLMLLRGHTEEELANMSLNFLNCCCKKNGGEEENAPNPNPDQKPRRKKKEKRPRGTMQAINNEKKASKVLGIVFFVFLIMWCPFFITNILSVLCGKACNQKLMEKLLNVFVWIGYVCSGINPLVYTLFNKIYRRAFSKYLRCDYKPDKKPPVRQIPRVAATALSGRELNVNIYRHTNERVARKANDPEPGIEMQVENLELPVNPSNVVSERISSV
Chain of Serotonin receptor 2a and 2c (5HT2A and 5HT2C) (Rattus norvegicus) (P14842 whole entry, looked up): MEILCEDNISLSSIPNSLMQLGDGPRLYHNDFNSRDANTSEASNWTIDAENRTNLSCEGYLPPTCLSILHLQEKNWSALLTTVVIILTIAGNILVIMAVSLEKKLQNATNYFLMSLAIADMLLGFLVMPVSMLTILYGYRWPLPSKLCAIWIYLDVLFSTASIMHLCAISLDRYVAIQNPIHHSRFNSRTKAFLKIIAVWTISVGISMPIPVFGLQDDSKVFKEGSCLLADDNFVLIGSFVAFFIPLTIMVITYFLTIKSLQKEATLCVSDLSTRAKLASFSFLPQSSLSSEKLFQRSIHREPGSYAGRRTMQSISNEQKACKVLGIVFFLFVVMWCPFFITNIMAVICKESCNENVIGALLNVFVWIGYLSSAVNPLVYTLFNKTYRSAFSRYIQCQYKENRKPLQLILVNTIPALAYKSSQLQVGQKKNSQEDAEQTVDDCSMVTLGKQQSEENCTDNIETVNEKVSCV

Compound | nH [1] | Ki [2] [nM] | further results
COc1cc(CC(C)N)c(OC)cc1I (racemic) | 0.89 | 2.8 | Ki [3]: 0.7 nM; Ki [4]: 20 nM
O=C(c1ccc(F)cc1)C1CCN(CCn2c(=O)[nH]c3ccccc3c2=O)CC1 | 0.87 | – | –
NCCc1c[nH]c2ccc(O)cc12 | 0.9 | – | –
COc1cc(C[C@@H](C)N)c(OC)cc1Br | 0.84 | – | –
O=C(CCCN1CCC2(CC1)C(=O)NCN2c1ccccc1)c1ccc(F)cc1 | 0.75 | – | –
CN(C)CCCSc1ccccc1NC(=O)/C=C/c1ccccc1 [CINANSERIN] | 0.76 | 5 | Ki [5]: 3.8 nM; Ki [6]: 4.5 nM
